DC50 and Dmax data for six compounds are collected here from patent publication US12091426B2, “Bifunctional degraders of hematopoietic progenitor kinase and therapeutic uses thereof” (Nurix Therapeutics, Inc., priority 2021, dated 2024).

Usually DC50 stands for the midpoint of the concentration-degradation curve. By Dmax is commonly meant the greatest extent of degradation seen.

In this assay the target is T1, HPK1 (Homo sapiens, UniProt Q92918).
T1 construct: A HiBiT tag was introduced by CRISPR on the N terminus of HPK1 in Jurkat cells; host or cells: Jurkat cells (ATCC TIB-152), monoclonal line with CRISPR knock-in of HiBiT at the endogenous HPK1 locus
T1 sequence (Q92918 whole entry): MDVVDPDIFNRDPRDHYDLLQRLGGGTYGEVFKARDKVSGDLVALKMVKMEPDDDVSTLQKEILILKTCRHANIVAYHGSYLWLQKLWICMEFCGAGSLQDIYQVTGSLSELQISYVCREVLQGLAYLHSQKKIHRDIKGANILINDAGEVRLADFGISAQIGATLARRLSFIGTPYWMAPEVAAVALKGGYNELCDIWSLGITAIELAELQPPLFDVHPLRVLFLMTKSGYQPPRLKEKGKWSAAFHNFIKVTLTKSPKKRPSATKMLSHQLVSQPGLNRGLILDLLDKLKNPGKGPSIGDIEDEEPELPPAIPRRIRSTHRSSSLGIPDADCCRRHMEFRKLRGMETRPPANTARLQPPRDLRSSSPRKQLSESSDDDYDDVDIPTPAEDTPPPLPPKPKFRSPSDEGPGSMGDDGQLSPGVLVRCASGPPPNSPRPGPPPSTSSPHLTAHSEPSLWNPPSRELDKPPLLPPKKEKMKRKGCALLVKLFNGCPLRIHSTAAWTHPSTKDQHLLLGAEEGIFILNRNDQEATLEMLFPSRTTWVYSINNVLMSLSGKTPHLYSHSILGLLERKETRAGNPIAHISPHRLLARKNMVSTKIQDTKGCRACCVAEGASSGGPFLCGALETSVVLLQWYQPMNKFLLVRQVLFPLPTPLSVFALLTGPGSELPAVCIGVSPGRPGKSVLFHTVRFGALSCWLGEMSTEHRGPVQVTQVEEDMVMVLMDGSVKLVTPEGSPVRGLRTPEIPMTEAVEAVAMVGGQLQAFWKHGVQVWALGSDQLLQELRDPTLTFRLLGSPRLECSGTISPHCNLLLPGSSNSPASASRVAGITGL
The assay can be described thus: HPK1 Cellular HiBit Degradation Assay. The class given is cell-based. The following applies: HiBiT HPK1 Jurkat cells, 24 hrs; for DC50: concentration at which 50% of HPK1 was remaining, read-out: DC50 Category; for Dmax: Jurkat, maximum degradation vs DMSO vehicle control, read-out: Dmax Category. In a few lines: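 HPK1 levels are read by HiBiT luminescence after 24 h exposure of HiBiT-knock-in Jurkat cells to compound at 10 uM–0.1 nM final (11 points). Relative to DMSO (100%), DC50 is the concentration leaving 50% HPK1 from a variable-slope fit, and Dmax is 100 minus minimum remaining. Viability checked in-plate.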

In the case of `CC(C)n1cnc2cc(-c3ccc4c(c3)N([C@H]3C[C@@H](N5CCCCC5)C3)C(=O)C43CCN(C(=O)c4cccc(C5CCN(C(=O)C6CCN(c7ccc(C8CCC(=O)NC8=O)cn7)CC6)CC5)c4)CC3)nc(NC3CC3)c21` (mixture of isomers) [Example 301, (3RS)-3-[6-(4-{4-[3-({6-[4-(cyclopropylamino)-3-(propan-2-yl)-3H-imidazo[4,5-c]pyridin-6-yl]-2-oxo-1-[(1S,3S)-3-(piperidin-1-yl)cyclobutyl]-1,2-dihydrospiro[indole-3,4′-piperidin]-1′-yl}carbonyl)phenyl]piperidine-1-carbonyl}piperidin-1-yl)pyridin-3-yl]piperidine-2,6-dione], the DC50 is 100 to 500 nM and the Dmax lay in the range of 50 to 70%.
`CC(C)n1cnc2cc(-c3ccc4c(c3)N([C@H]3C[C@@H](N5CCCCC5)C3)C(=O)C43CCN(C(=O)C[C@@H]4CCCN(C(=O)CC5CCN(c6ccc(C7CCC(=O)NC7=O)cn6)CC5)C4)CC3)nc(NC3CC3)c21` (mixture of isomers) [Example 299, (3RS)-3-[6-(4-{2-[(3S)-3-(2-{6-[4-(cyclopropylamino)-3-(propan-2-yl)-3H-imidazo[4,5-c]pyridin-6-yl]-2-oxo-1-[(1S,3S)-3-(piperidin-1-yl)cyclobutyl]-1,2-dihydrospiro[indole-3,4′-piperidin]-1′-yl}-2-oxoethyl)piperidin-1-yl]-2-oxoethyl}piperidin-1-yl)pyridin-3-yl]piperidine-2,6-dione]: the DC50 is 100 to 500 nM and the Dmax was in the range of 70 to 85%.
In the case of `CC(C)n1cnc2cc(-c3ccc4c(c3)N([C@H]3C[C@@H](N5CCCCC5)C3)C(=O)C43CCN(C(=O)C4(C)CCN(C(=O)[C@H]5CC[C@H](Cn6cc7cc(C8CCC(=O)NC8=O)ccc7n6)CC5)CC4)CC3)nc(Nc3ccccc3F)c21` (mixture of isomers) [Example 190, (3RS)-3-(2-{[(1R,4R)-4-{4-[(6-{4-[(2-fluorophenyl)amino]-3-(propan-2-yl)-3H-imidazo[4,5-c]pyridin-6-yl}-2-oxo-1-[(1S,3S)-3-(piperidin-1-yl)cyclobutyl]-1,2-dihydrospiro[indole-3,4′-piperidin]-1′-yl)carbonyl]-4-methylpiperidine-1-carbonyl}cyclohexyl]methyl}-2H-indazol-5-yl)piperidine-2,6-dione], the DC50 is less than 100 nM and the Dmax lay within 50 to 70%.
On the same counts, the results for `CC(C)n1cnc2cc(-c3ccc4c(c3)N([C@H]3C[C@@H](N5CCCCC5)C3)C(=O)C43CCN(C(=O)[C@@H]4CCN(C(=O)C5CCN(c6ccc(N7CCC(=O)NC7=O)cc6)CC5)C4)CC3)nc(NC3CC3)c21` [Example 233, 1-(4-{4-[(3R)-3-({6-[4-(cyclopropylamino)-3-(propan-2-yl)-3H-imidazo[4,5-c]pyridin-6-yl]-2-oxo-1-[(1S,3S)-3-(piperidin-1-yl)cyclobutyl]-1,2-dihydrospiro[indole-3,4′-piperidin]-1′-yl}carbonyl)pyrrolidine-1-carbonyl]piperidin-1-yl}phenyl)-1,3-diazinane-2,4-dione] are less than 100 nM and 70 to 85%.
On the same counts, the results for `CC(C)n1cnc2cc(-c3ccc4c(c3)N([C@H]3C[C@@H](N5CC6CCC(C5)O6)C3)C(=O)C43CCN(C(=O)C4(C)CCN(C(=O)C5CCN(c6ccc(C7CCC(=O)NC7=O)cc6)CC5)CC4)CC3)nc(NC3CC3)c21` (mixture of isomers) [Example 197] are 100 to 500 nM and 50 to 70%.
Turning to `CC(C)n1cnc2cc(-c3ccc4c(c3)N([C@H]3C[C@@H](N5CCCCC5)C3)C(=O)C43CCN(C(=O)C4CCN(C(=O)C5CCN(c6ccc7c(c6)C(=O)N(C6CCC(=O)NC6=O)C7=O)CC5)CC4)CC3)nc(NC3CC3)c21` (mixture of isomers) [Example 86, 5-{4-[4-({6-[4-(cyclopropylamino)-3-(propan-2-yl)-3H-imidazo[4,5-c]pyridin-6-yl]-2-oxo-1-[(1S,3S)-3-(piperidin-1-yl)cyclobutyl]-1,2-dihydrospiro[indole-3,4′-piperidin]-1′-yl}carbonyl)piperidine-1-carbonyl]piperidin-1-yl}-2-[(3RS)-2,6-dioxopiperidin-3-yl]-2,3-dihydro-1H-isoindole-1,3-dione], the DC50 was 100 to 500 nM and the Dmax was 70 to 85%.
